Reference: patent US20260083865A1, “PROSTATE SPECIFIC MEMBRANE ANTIGEN (PSMA) LIGANDS AND USE THEREOF” (priority 2022, published 2026)
Like-named read-outs stand apart in the source and are kept apart here. Numbered stars: 1 amine (or outer) side, 2 acyl side, 3 side chain; on linkers, the order of the positions; unused ones are H or OH. Bridge positions count the residues as written; N and C are the ends. Square brackets hold non-standard residues; d marks the D form. Peptide text beside a SMILES is read from it. * marks the point of attachment. X12 = O=C(O)CN1CCOCCN(CC(=O)O)CCN(CC(=O)*)CCOCCN(CC(=O)O)CC1; DOTA = O=C(O)CN1CCN(CC(=O)O)CCN(CC(=O)*)CCN(CC(=O)O)CC1; Biotin = O=C1N[C@H]2[C@H](CS[C@H]2CCCCC(=O)*)N1; Phe(4-Cl) = N[C@@H](Cc1ccc(Cl)cc1)C(=O)O; Arg(Me) = CNC(=N)NCCC[C@H](N)C(=O)O; X1 = O=C(CC1CCN([*:1])CC1)[*:2]; Cit = NC(=O)NCCC[C@H](N)C(=O)O; Lys(Me) = CNCCCC[C@H](N)C(=O)O; NMeL = CN[C@@H](CC(C)C)C(=O)O; Tle = CC(C)(C)[C@H](N)C(=O)O; Nle = CCCC[C@H](N)C(=O)O; Aib = CC(C)(N)C(=O)O; Guanidino = N=C(N)N*

Assays:
[1] = molecular target: T1, Fc-fusion protein of human PSMA (hPSMA-Fc) (Homo sapiens, UniProt Q04609); test: Surface plasmon resonance assay (Biacore T200, single cycle kinetic); format: binding
T1 construct: purchased Acro Biosystems PSA-H5264
T1 sequence (Q04609 44-750 limits assumed): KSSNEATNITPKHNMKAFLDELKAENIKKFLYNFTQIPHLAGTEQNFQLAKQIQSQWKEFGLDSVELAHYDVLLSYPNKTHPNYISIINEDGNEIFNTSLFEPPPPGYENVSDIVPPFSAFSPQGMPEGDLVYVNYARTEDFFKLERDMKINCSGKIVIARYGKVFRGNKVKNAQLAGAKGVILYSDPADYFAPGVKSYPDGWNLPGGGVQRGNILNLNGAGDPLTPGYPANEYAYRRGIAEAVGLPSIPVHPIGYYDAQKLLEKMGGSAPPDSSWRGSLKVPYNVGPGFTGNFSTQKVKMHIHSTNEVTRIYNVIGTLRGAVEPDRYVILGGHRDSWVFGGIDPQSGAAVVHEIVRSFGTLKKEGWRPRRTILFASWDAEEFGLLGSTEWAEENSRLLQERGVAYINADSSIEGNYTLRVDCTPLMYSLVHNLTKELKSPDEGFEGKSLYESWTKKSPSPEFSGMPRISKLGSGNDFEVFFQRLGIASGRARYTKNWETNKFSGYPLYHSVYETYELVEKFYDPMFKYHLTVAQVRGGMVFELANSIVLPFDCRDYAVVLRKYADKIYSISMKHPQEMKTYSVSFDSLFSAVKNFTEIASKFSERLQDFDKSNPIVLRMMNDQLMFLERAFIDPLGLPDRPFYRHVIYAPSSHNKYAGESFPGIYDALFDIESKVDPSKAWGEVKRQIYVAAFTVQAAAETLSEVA
Procedure, shortened: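 KD, expressed as pKD, came from 1:1 Langmuir fits of reference- and buffer-blank-subtracted SPR data. The runs were single-cycle kinetics at 25° C in HBST/0.1% DMSO over human PSMA-Fc, captured to ~1000 RU on a peptide-coated CM5 surface and regenerated with 10 mM glycine pH 1.5.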

[2] = molecular target: T2, PSMA-expressing C4-2 cells (Homo sapiens, UniProt Q04609); test: FACS binding assay (competition with 50 nM PSM-0183)
T2 construct: PSMA-expressing C4-2 cells (ATCC, Cat. No. CRL-3314) were cultured in RPMI-1640; host or cells: C4-2 cells
T2 sequence (Q04609 whole entry): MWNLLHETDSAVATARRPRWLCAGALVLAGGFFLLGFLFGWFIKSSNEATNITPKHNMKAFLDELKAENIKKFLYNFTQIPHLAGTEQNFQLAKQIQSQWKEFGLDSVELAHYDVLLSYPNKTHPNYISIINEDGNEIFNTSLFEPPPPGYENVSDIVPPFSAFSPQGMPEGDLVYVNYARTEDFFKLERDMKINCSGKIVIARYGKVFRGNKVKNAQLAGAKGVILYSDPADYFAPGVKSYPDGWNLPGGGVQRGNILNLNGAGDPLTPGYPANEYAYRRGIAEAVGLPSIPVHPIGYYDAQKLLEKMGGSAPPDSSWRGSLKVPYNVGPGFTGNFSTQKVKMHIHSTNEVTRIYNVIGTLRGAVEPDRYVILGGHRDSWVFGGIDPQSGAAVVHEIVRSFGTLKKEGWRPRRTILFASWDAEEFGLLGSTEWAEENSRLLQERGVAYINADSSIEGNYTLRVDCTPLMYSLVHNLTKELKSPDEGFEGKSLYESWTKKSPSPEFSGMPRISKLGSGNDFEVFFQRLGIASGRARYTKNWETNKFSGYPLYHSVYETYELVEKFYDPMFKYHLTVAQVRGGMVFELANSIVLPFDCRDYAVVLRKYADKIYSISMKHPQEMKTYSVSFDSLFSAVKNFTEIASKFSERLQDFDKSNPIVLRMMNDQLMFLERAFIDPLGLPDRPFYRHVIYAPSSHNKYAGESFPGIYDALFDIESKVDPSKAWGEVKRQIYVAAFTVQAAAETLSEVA
Procedure, shortened: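 Competition format: fluorescent tracer PSM-0183 (50 nM) displaced from PSMA on C4-2 cells by a test compound titration over 1 h at 4 °C. Bound tracer was quantified as flow-cytometric AF488 median fluorescence after washing. Four-parameter logistic fits of MFI data gave IC50 and pIC50.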

[3] = pKD category for PSMA SPR activity assay, hPSMA-Fc, 25° C., read-out: pKD CAT (converted)
[4] = pIC50 category of FACS binding, C4-2 cells, read-out: pIC50 [C4-2] CAT (converted)

| Kd [1, 3] [µM] | IC50 [2, 4] [µM] | Compound | Kd [1] [µM] | IC50 [2] [µM] |
| --- | --- | --- | --- | --- |
| < 0.0126 | < 0.2 | CC(=O)N[C@H](C(=O)NC(C)(C)C(=O)N[C@@H](Cc1ccc(Cl)cc1)C(=O)N[C@H]1CSSC[C@@H](C(=O)N[C@H](C(=O)N[C@H](C(=O)O)[C@@H](C)O)C(C)(C)C)NC(=O)[C@H](CC(N)=O)NC(=O)C(C)(C)NC(=O)[C@H](CCCNC(=N)N)NC(=O)[C@H](CCCCN)NC1=O)[C@@H](C)O [PSM-0493, Ac-Thr-Aib-Pcf-[Cys-Lys-Arg-Aib-Asn-Cys]-Tle-Thr-OH] (Ac-T[Aib][Phe(4-Cl)]CKR[Aib]NC[Tle]T-OH; disulfide 4-9) | – | – |
| < 0.0126 | < 0.2 | CNCCCC[C@@H]1NC(=O)[C@@H](NC(=O)[C@H](Cc2ccc(Cl)cc2)NC(=O)C(C)(C)NC(=O)[C@@H](NC(=O)CC2CCN(C(=O)CN3CCOCCN(CC(=O)O)CCN(CC(=O)O)CCOCCN(CC(=O)O)CC3)CC2)[C@@H](C)O)CSSC[C@@H](C(=O)N[C@H](C(=O)N[C@H](C(N)=O)[C@@H](C)O)C(C)(C)C)NC(=O)[C@H](CC(N)=O)NC(=O)C(C)(C)NC(=O)[C@H](CCCNC(=N)NC)NC1=O [PSM-0495, Crown-Cmp-Thr-Aib-Pcf-[Cys-Lys(Me)-Arg(Me)-Aib-Asn-Cys]-Tle-Thr-NH2] (X12-[X1]T[Aib][Phe(4-Cl)]C[Lys(Me)][Arg(Me)][Aib]NC[Tle]T-NH2; disulfide 5-10) | – | – |
| 0.0126 to 0.126 | < 0.2 | CC(=O)N[C@H](C(=O)NC(C)(C)C(=O)N[C@@H](Cc1ccc(Cl)cc1)C(=O)N[C@H]1CSSC[C@@H](C(=O)N[C@H](C(=O)N[C@H](C(N)=O)[C@@H](C)O)C(C)(C)C)NC(=O)[C@H](CCC(=O)O)NC(=O)C(C)(C)NC(=O)[C@H](CCCNC(N)=O)NC(=O)[C@H](CCCCN)NC1=O)[C@@H](C)O [PSM-0496, Ac-Thr-Aib-Pcf-[Cys-Lys-Cit-Aib-Glu-Cys]-Tle-Thr-NH2] (Ac-T[Aib][Phe(4-Cl)]CK[Cit][Aib]EC[Tle]T-NH2; disulfide 4-9) | – | – |
| 0.126 to 0.501 | 0.2 to 1.26 | CC(C)C[C@@H](C(=O)N[C@H](C(N)=O)[C@@H](C)O)N(C)C(=O)[C@@H]1CSSC[C@H](NC(=O)[C@H](Cc2ccc(Cl)cc2)NC(=O)C(C)(C)NC(=O)[C@@H](NC(=O)CC2CCN(C(=O)CN3CCN(CC(=O)O)CCN(CC(=O)O)CCN(CC(=O)O)CC3)CC2)[C@@H](C)O)C(=O)N[C@@H](CCCCN)C(=O)N[C@@H](CCCNC(=N)N)C(=O)NC(C)(C)C(=O)N[C@@H](CC(N)=O)C(=O)N1 [PSM-0497, DOTA-Cmp-Thr-Aib-Pcf-[Cys-Lys-Arg-Aib-Asn-Cys]-Nml-Thr-NH2] ({DOTA}-[X1]T[Aib][Phe(4-Cl)]CKR[Aib]NC[NMeL]T-NH2; disulfide 5-10) | – | – |

The remaining lines, values behind:

| Compound | Kd [1, 3] [µM] | IC50 [2, 4] [µM] | Kd [1] [µM] | IC50 [2] [µM] |
| --- | --- | --- | --- | --- |
| C[C@@H](O)[C@H](NC(=O)[C@@H](NC(=O)[C@@H]1CSSC[C@H](NC(=O)[C@H](Cc2ccc(Cl)cc2)NC(=O)C(C)(C)NC(=O)[C@@H](NC(=O)CC2CCN(C(=O)CN3CCN(CC(=O)O)CCN(CC(=O)O)CCN(CC(=O)O)CC3)CC2)[C@@H](C)O)C(=O)N[C@@H](CCCCNC(=O)CCCC[C@@H]2SC[C@@H]3NC(=O)N[C@@H]32)C(=O)N[C@@H](CCCNC(=N)N)C(=O)NC(C)(C)C(=O)N[C@@H](CC(N)=O)C(=O)N1)C(C)(C)C)C(N)=O [PSM-0490, DOTA-Cmp-Thr-Aib-Pcf-[Cys-Lys (Bio)-Arg-Aib-Asn-Cys]-Tle-Thr-NH2] ({DOTA}-[X1]T[Aib][Phe(4-Cl)]CK(Biotin)R[Aib]NC[Tle]T-NH2; disulfide 5-10) | < 0.0126 | 0.2 to 1.26 | – | – |
| CCCC[C@H](NC(=O)[C@@H]1CSSC[C@H](NC(=O)[C@H](Cc2ccccc2)NC(=O)[C@H](C)NC(=O)[C@H](C)NC(C)=O)C(=O)N[C@@H](CCCCN)C(=O)N[C@@H](CCCNC(=N)N)C(=O)N[C@@H](C)C(=O)N[C@@H](CC(N)=O)C(=O)N1)C(=O)N[C@H](C(=O)N[C@@H](CC(=O)O)C(N)=O)[C@@H](C)O [PSM-0491, Ac-Ala-Ala-Phe-[Cys-Lys-Arg-Ala-Asn-Cys]-Nle-Thr-Asp-NH2] (Ac-AAFCKRANC[Nle]TD-NH2; disulfide 4-9) | 0.126 to 0.501 | 0.2 to 1.26 | – | – |
| CC(=O)NC(C)(C)C(=O)N[C@@H](Cc1ccc(Cl)cc1)C(=O)N[C@H]1CSSC[C@@H](C(=O)N[C@H](C(=O)N[C@H](C(=O)N2CCC(CC(=O)N[C@H](CCCCNC(=O)CN3CCN(CC(=O)O)CCN(CC(=O)O)CCN(CC(=O)O)CC3)C(N)=O)CC2)[C@@H](C)O)C(C)(C)C)NC(=O)[C@H](CC(N)=O)NC(=O)C(C)(C)NC(=O)[C@H](CCC(=O)NC(=N)N)NC(=O)[C@H](CCCCN)NC1=O [PSM-0494, Ac-Aib-Pcf-[Cys-Lys-Gln(Gu)-Aib-Asn-Cys]-Tle-Thr-Cmp-lys(DOTA)-NH2] (Ac-[Aib][Phe(4-Cl)]CKE(Guanidino)[Aib]NC[Tle]T[X1][dK](DOTA)-NH2; disulfide 3-8) | – | – | 0.0126 to 0.126 | < 0.2 |
